Laboratory results: ChEMBL document CHEMBL3751672, “PPAR agonists based on stilbene and its bioisosteres: biological evaluation and docking studies” (Medchemcomm, 2015)
The source made the active and inactive calls. The calls are words filed in the database; no cut-off is given here.

Assays:
Format in all cases: cell-based
[1] = target: T1, Peroxisome proliferator-activated receptor alpha (Homo sapiens) (UniProt Q07869); assay: Transactivation of human PPARalpha expressed in HEK293 cells at 150 uM incubated for 18 hrs by dual luciferase reporter gene assay relative to gemfibrozil
T1 sequence (whole entry): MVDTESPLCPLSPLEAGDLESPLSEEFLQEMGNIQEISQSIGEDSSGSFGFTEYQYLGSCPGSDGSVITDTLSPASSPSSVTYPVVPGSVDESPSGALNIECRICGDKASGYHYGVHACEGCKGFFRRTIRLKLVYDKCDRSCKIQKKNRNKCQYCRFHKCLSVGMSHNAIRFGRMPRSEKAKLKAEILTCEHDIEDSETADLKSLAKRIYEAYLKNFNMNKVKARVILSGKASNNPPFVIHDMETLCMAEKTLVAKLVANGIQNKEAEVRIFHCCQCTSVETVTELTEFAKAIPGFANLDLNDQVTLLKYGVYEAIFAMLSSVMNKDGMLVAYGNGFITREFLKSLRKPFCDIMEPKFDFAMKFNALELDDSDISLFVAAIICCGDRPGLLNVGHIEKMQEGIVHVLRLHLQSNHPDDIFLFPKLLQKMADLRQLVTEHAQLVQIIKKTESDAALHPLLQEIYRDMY

[2] = target: T2, Peroxisome proliferator-activated receptor alpha (Homo sapiens, UniProt Q07869); assay: Transactivation of human PPARalpha expressed in HEK293 cells incubated for 18 hrs by dual luciferase reporter gene assay
T2 sequence (Q07869 whole entry): T1 sequence (whole entry)

[3] = target: T1, Peroxisome proliferator-activated receptor alpha (Homo sapiens); assay: Agonist activity at PPARalpha in human HepG2 cells assessed as increase in CPT1A gene expression at 10 uM incubated for 24 hrs by real time quantitative PCR method
[4] = target: T1, Peroxisome proliferator-activated receptor alpha (Homo sapiens); assay: Agonist activity at PPARalpha in human HepG2 cells assessed as increase in CPT1A gene expression at 100 uM incubated for 24 hrs by real time quantitative PCR method relative to gemfibrozil
[5] = target: T1, Peroxisome proliferator-activated receptor alpha (Homo sapiens); assay: Agonist activity at PPARalpha in human HepG2 cells assessed as increase in CPT1A gene expression incubated for 24 hrs by real time quantitative PCR method
[6] = target: T1, Peroxisome proliferator-activated receptor alpha (Homo sapiens); assay: Agonist activity at PPARalpha in human HepG2 cells assessed as increase in CPT1A gene expression at 10 uM incubated for 24 hrs by real time quantitative PCR method relative to gemfibrozil
[7] = target: T1, Peroxisome proliferator-activated receptor alpha (Homo sapiens); assay: Agonist activity at PPARalpha in human HepG2 cells assessed as increase in CPT1A gene expression at EC50 incubated for 24 hrs by real time quantitative PCR method

Efficacy [1] [%]	EC50 [2] [µM]	SMILES	other results
20		CC(C)(CCCOc1ccc(/C=C/c2ccc(Cl)cc2Cl)cc1Cl)C(=O)O	
29		CC(C)(CCCOc1ccc(/C=C/c2ccc(N)cc2)cc1)C(=O)O	
23		CC(C)(CCCOc1ccc(/C=C/c2ccc(C#N)cc2)cc1)C(=O)O	
164	28.4	COc1ccc(/C=C/c2ccc(OCCCC(C)(C)C(=O)O)cc2)cc1	
46		CC(C)(CCCOc1ccc(/C=C/c2ccccc2)cc1Cl)C(=O)O	
152	3.8	CC(C)(CCCOc1ccc(/C=C/c2ccsc2)cc1)C(=O)O	
118	3.3	Cc1ccc(/C=C/c2ccc(OCCCC(C)(C)C(=O)O)cc2)cc1	
227	0.8	CC(C)(CCCOc1ccc(/C=C/c2ccc(Cl)cc2)cc1)C(=O)O	Activity [3]: Active; fold change (FC) [4]: 2; fold change (FC) [1]: 2; Activity [5]: Dose-dependent effect
115	103	CC(C)(CCCOc1ccc(/C=C/c2ccncc2)cc1)C(=O)O	
		CC(C)(CCCOc1ccc(/C=C/c2ccccc2)cc1)C(=O)O	fold change (FC) [4]: 6; fold change (FC) [1]: 2; fold change (FC) [6]: 2; Activity [5]: Dose-dependent effect
32		CC(C)(CCCOc1ccc(/C=C/c2ccc(Cl)cc2Cl)cc1)C(=O)O	
17		CC(C)c1ccc(/C=C/c2ccc(OCCCC(C)(C)C(=O)O)cc2)cc1	
205	0.76	CC(C)(CCCOc1ccc(/C=C/c2ccc(C(F)(F)F)cc2)cc1)C(=O)O	Activity [3]: Active; fold change (FC) [4]: 2; fold change (FC) [1]: 2; Activity [5]: Dose-dependent effect
		Cc1ccc(C)c(OCCCC(C)(C)C(=O)O)c1	Activity [7]: Active
123	90	CC(C)(CCCOc1ccc(/C=C/c2ccc3ccccc3c2)cc1)C(=O)O	
